{"source": "patent US20250243196A1", "about": "“CITRON KINASE INHIBITORS” (The Cleveland Clinic Foundation, priority 2021, published 2025)", "assay_in_all_cases": "KinaseProfiler panel", "format_in_all_cases": "biochemical", "settings_in_all_cases": "activity remaining", "key": {"[1]": {"molecular_target": "ARK5(h) (Homo sapiens (Human), UniProt O60285)", "parameters": "dose or concentration left out as unconfirmed"}, "[2]": {"molecular_target": "B-Raf(h) (Homo sapiens (Human), UniProt P15056)", "parameters": "dose or concentration left out as unconfirmed"}, "[3]": {"molecular_target": "Blk(h) (Homo sapiens (Human), UniProt P51451)", "parameters": "dose or concentration left out as unconfirmed"}, "[4]": {"molecular_target": "CaMKIIγ(h) (Homo sapiens (Human), UniProt Q13555)", "sequence (Q13555 whole entry)": "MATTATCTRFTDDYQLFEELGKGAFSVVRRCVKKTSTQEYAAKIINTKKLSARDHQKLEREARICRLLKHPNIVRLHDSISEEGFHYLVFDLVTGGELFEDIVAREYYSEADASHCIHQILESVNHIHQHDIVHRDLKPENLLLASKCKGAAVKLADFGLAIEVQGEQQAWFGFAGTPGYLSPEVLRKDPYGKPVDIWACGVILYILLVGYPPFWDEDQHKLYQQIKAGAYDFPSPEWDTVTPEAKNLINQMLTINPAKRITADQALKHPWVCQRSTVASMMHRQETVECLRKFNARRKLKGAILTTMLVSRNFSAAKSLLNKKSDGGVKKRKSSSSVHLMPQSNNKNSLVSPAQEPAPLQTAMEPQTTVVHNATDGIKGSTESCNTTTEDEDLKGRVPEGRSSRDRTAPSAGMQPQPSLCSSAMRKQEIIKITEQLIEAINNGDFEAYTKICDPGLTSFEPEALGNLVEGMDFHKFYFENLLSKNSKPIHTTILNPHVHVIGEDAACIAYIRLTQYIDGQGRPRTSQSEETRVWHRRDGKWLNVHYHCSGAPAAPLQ", "parameters": "dose or concentration left out as unconfirmed"}, "[5]": {"molecular_target": "CaMKIβ(h) (Homo sapiens (Human), UniProt Q6P2M8)", "sequence (Q6P2M8 whole entry)": "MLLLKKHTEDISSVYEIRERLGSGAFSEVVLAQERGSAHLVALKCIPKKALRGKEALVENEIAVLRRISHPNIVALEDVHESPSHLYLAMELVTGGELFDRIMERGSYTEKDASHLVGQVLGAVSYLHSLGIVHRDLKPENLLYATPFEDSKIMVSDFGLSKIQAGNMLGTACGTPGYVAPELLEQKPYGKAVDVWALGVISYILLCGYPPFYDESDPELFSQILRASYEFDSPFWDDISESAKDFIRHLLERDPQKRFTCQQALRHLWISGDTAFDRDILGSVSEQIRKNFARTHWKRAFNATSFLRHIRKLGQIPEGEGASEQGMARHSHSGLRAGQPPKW", "parameters": "dose or concentration left out as unconfirmed"}, "[6]": {"molecular_target": "CaMKK1(h) (Homo sapiens (Human), UniProt Q8N5S9)", "parameters": "dose or concentration left out as unconfirmed"}, "[7]": {"molecular_target": "CDKL3(h) (Homo sapiens (Human), UniProt Q8IVW4)", "sequence (Q8IVW4 whole entry)": "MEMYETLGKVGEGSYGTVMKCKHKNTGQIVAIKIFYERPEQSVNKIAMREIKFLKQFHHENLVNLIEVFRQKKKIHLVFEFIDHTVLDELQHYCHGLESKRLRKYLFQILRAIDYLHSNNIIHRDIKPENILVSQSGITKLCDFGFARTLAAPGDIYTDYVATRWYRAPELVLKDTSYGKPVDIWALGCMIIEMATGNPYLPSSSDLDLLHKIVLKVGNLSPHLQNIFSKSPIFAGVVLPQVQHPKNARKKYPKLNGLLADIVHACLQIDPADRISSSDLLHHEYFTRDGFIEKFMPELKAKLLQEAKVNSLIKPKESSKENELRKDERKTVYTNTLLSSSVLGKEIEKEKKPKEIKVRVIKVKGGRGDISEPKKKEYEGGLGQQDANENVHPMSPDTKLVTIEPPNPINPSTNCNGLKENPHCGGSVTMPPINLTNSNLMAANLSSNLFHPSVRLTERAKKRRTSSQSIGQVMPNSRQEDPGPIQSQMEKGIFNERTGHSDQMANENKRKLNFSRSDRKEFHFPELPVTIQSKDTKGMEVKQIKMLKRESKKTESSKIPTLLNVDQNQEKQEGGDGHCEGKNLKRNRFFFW", "parameters": "dose or concentration left out as unconfirmed"}, "[8]": {"molecular_target": "CK1α(h) (Homo sapiens (Human), UniProt P48729)", "parameters": "dose or concentration left out as unconfirmed"}, "[9]": {"molecular_target": "CLK3(h) (Homo sapiens (Human), UniProt P49761)", "parameters": "dose or concentration left out as unconfirmed"}, "[10]": {"molecular_target": "EphA7(h) (Homo sapiens (Human), UniProt Q15375)", "parameters": "dose or concentration left out as unconfirmed"}, "[11]": {"molecular_target": "ErbB2(h) (Homo sapiens (Human), UniProt P04626)", "parameters": "dose or concentration left out as unconfirmed"}, "[12]": {"molecular_target": "FGFR1(h) (Homo sapiens (Human), UniProt P11362)", "parameters": "dose or concentration left out as unconfirmed"}, "[13]": {"molecular_target": "Fyn(h) (Homo sapiens (Human), UniProt P06241)", "parameters": "dose or concentration left out as unconfirmed"}, "[14]": {"molecular_target": "GRK3(h) (Homo sapiens (Human), UniProt P35626)", "parameters": "dose or concentration left out as unconfirmed"}, "[15]": {"molecular_target": "Haspin(h) (Homo sapiens (Human), UniProt Q8TF76)", "parameters": "dose or concentration left out as unconfirmed"}, "[16]": {"molecular_target": "Hck(h) activated (Homo sapiens (Human), UniProt P08631)", "parameters": "dose or concentration left out as unconfirmed"}, "[17]": {"molecular_target": "IGF-1R(h), activated (Homo sapiens (Human), UniProt P08069)", "sequence (P08069 31-1367)": "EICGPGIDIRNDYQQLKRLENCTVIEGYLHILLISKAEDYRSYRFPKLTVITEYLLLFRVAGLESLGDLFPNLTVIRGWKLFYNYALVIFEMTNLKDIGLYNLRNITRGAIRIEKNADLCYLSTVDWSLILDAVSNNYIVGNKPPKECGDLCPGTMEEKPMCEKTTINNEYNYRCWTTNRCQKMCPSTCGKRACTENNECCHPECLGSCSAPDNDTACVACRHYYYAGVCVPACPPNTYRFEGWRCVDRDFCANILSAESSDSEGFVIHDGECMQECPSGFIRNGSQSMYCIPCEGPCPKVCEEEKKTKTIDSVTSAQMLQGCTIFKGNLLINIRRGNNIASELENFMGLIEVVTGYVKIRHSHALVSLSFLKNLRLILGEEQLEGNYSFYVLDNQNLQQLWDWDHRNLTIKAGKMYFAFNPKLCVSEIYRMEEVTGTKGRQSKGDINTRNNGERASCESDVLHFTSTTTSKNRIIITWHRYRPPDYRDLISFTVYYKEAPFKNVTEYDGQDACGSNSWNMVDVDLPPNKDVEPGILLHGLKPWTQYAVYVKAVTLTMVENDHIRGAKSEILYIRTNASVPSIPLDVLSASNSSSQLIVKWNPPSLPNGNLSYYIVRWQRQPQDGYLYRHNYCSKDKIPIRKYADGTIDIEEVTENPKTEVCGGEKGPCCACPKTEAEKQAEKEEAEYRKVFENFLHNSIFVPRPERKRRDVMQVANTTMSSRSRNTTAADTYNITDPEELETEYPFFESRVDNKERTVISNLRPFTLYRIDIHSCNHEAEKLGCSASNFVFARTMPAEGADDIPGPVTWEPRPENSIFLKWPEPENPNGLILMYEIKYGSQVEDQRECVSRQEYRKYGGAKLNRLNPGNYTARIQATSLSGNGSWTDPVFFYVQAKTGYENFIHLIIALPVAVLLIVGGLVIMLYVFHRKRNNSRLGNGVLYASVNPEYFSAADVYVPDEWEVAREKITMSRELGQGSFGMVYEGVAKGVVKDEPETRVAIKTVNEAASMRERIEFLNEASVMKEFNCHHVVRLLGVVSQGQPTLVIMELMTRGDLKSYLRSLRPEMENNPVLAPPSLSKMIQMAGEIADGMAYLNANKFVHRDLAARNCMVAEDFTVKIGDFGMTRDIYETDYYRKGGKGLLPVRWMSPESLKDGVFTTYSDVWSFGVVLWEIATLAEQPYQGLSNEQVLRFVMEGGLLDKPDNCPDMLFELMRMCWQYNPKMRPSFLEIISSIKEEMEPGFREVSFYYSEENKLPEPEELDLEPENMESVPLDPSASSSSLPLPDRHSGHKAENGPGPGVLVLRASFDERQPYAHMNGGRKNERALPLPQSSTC", "parameters": "dose or concentration left out as unconfirmed"}, "[18]": {"molecular_target": "JNK2α2(h) (Homo sapiens (Human), UniProt P45984)", "parameters": "dose or concentration left out as unconfirmed"}, "[19]": {"molecular_target": "MEK1(h) (Homo sapiens (Human), UniProt Q02750)", "sequence (Q02750 whole entry)": "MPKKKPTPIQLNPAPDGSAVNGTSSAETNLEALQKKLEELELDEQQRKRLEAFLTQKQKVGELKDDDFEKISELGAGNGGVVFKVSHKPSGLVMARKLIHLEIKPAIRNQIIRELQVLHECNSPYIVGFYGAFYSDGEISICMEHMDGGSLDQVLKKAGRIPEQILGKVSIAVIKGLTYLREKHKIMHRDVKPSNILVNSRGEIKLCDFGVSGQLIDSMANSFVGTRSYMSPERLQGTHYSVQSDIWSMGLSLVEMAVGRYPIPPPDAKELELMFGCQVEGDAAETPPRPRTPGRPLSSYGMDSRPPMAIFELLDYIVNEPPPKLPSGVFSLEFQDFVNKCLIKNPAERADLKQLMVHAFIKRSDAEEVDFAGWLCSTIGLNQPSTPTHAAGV", "parameters": "dose or concentration left out as unconfirmed"}, "[20]": {"molecular_target": "MELK(h) (Homo sapiens (Human), UniProt Q14680)", "parameters": "dose or concentration left out as unconfirmed"}, "[21]": {"molecular_target": "MOK(h) (Homo sapiens (Human), UniProt Q9UQ07)"}, "[22]": {"molecular_target": "MST2(h) (Homo sapiens (Human), UniProt Q13188)", "parameters": "dose or concentration left out as unconfirmed"}, "[23]": {"molecular_target": "NEK2(h) (Homo sapiens (Human), UniProt P51955)", "sequence (P51955 whole entry)": "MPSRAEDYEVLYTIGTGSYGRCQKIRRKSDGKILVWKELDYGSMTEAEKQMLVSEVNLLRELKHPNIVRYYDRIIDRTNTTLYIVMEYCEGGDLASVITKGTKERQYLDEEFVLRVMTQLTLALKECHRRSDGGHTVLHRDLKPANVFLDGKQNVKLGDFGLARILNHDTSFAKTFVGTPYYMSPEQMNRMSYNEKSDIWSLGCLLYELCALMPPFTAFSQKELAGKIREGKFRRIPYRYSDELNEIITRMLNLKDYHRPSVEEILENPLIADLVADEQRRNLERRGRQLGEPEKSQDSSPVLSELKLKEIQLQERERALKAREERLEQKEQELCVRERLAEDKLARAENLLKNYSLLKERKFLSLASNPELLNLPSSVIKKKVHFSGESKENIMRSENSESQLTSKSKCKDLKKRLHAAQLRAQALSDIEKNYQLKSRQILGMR", "parameters": "dose or concentration left out as unconfirmed"}, "[24]": {"molecular_target": "PDGFRα(h) (Homo sapiens (Human), UniProt P16234)", "parameters": "dose or concentration left out as unconfirmed"}, "[25]": {"molecular_target": "PhKγ2(h) (Homo sapiens (Human), UniProt P15735)", "parameters": "dose or concentration left out as unconfirmed"}, "[26]": {"molecular_target": "Plk3(h) (Homo sapiens (Human), UniProt Q9H4B4)", "sequence (Q9H4B4 whole entry)": "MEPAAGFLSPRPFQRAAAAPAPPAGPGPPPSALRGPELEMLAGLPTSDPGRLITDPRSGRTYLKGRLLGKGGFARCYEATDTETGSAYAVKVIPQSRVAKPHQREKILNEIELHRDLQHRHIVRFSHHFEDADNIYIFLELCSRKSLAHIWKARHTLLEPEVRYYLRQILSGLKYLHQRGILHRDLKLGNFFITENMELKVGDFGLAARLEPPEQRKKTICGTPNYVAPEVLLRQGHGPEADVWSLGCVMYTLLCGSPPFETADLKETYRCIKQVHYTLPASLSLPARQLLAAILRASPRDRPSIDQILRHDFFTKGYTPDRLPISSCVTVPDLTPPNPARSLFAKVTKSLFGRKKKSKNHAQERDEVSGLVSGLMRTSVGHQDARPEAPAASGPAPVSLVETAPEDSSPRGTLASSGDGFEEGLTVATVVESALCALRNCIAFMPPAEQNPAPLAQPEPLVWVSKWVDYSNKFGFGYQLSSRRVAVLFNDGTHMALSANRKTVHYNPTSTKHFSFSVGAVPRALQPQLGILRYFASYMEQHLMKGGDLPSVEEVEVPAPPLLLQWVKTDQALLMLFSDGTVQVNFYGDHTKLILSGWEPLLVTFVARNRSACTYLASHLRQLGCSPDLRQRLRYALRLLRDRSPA", "parameters": "dose or concentration left out as unconfirmed"}, "[27]": {"molecular_target": "Rsk1(h) (Homo sapiens (Human), UniProt Q15418)", "sequence (Q15418 whole entry)": "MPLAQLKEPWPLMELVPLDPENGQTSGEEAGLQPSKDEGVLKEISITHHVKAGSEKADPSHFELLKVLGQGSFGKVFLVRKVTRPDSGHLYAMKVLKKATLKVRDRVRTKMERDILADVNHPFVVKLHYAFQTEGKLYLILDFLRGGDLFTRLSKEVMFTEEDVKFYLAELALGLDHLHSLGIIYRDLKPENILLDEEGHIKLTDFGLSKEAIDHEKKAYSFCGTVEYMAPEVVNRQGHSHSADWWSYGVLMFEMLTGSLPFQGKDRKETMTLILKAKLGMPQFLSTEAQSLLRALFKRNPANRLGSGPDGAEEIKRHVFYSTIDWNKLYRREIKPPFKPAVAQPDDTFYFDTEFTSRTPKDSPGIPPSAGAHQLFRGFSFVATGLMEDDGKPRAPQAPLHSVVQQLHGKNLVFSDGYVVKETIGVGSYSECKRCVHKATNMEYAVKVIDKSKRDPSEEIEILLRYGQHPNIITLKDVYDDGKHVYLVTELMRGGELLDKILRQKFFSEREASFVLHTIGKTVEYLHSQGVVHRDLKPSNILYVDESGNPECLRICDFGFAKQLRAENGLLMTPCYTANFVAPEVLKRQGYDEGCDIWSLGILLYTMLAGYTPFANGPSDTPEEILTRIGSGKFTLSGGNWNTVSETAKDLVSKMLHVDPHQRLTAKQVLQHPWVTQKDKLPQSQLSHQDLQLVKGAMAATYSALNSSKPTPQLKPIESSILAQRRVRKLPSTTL", "parameters": "dose or concentration left out as unconfirmed"}, "[28]": {"molecular_target": "TRB2(h) (Homo sapiens (Human), UniProt Q92519)", "parameters": "dose or concentration left out as unconfirmed"}, "[29]": {"molecular_target": "TrkB(h) (Homo sapiens (Human), UniProt Q16620)", "parameters": "dose or concentration left out as unconfirmed"}, "[30]": {"molecular_target": "TrkC(h) (Homo sapiens (Human), UniProt Q16288)", "parameters": "dose or concentration left out as unconfirmed"}, "[31]": {"molecular_target": "ULK2(h) (Homo sapiens (Human), UniProt Q8IYT8)", "parameters": "dose or concentration left out as unconfirmed"}, "[32]": {"molecular_target": "VRK1(h) (Homo sapiens (Human), UniProt Q99986)", "parameters": "dose or concentration left out as unconfirmed"}, "[33]": {"molecular_target": "Yes(h) (Homo sapiens (Human), UniProt P07947)", "parameters": "dose or concentration left out as unconfirmed"}}}
{"smiles": "Cc1cc2c(-c3ccc(NC(=O)[C@H](N)CC(C)(C)C)cc3C)ccnc2[nH]1", "note": "[Compound F-90, (2R)-2-Amino-4,4-dimethyl-N-[3-methyl-4-(2-methyl-1H-pyrrolo[2,3-b]pyridin-4-yl)phenyl]pentanamide]", "values": [{"measurement": "% Activity", "setting": "[1]", "value": 85, "unit": "%"}, {"measurement": "% Activity", "setting": "[2]", "value": 110, "unit": "%"}, {"measurement": "% Activity", "setting": "[3]", "value": 88, "unit": "%"}, {"measurement": "% Activity", "setting": "[4]", "value": 106, "unit": "%"}, {"measurement": "% Activity", "setting": "[5]", "value": 85, "unit": "%"}, {"measurement": "% Activity", "setting": "[6]", "value": 89, "unit": "%"}, {"measurement": "% Activity", "setting": "[7]", "value": 79, "unit": "%"}, {"measurement": "% Activity", "setting": "[8]", "value": 97, "unit": "%"}, {"measurement": "% Activity", "setting": "[9]", "value": 107, "unit": "%"}, {"measurement": "% Activity", "setting": "[10]", "value": 114, "unit": "%"}, {"measurement": "% Activity", "setting": "[11]", "value": 97, "unit": "%"}, {"measurement": "% Activity", "setting": "[12]", "value": 100, "unit": "%"}, {"measurement": "% Activity", "setting": "[13]", "value": 100, "unit": "%"}, {"measurement": "% Activity", "setting": "[14]", "value": 81, "unit": "%"}, {"measurement": "% Activity", "setting": "[15]", "value": 140, "unit": "%"}, {"measurement": "% Activity", "setting": "[16]", "value": 111, "unit": "%"}, {"measurement": "% Activity", "setting": "[17]", "value": 93, "unit": "%"}, {"measurement": "% Activity", "setting": "[18]", "value": 99, "unit": "%"}, {"measurement": "% Activity", "setting": "[19]", "value": 101, "unit": "%"}, {"measurement": "% Activity", "setting": "[20]", "value": 82, "unit": "%"}, {"measurement": "% Activity", "setting": "[21]", "value": 90, "unit": "%"}, {"measurement": "% Activity", "setting": "[22]", "value": 106, "unit": "%"}, {"measurement": "% Activity", "setting": "[23]", "value": 118, "unit": "%"}, {"measurement": "% Activity", "setting": "[24]", "value": 116, "unit": "%"}, {"measurement": "% Activity", "setting": "[25]", "value": 98, "unit": "%"}, {"measurement": "% Activity", "setting": "[26]", "value": 100, "unit": "%"}, {"measurement": "% Activity", "setting": "[27]", "value": 99, "unit": "%"}, {"measurement": "% Activity", "setting": "[28]", "value": 104, "unit": "%"}, {"measurement": "% Activity", "setting": "[29]", "value": 84, "unit": "%"}, {"measurement": "% Activity", "setting": "[30]", "value": 86, "unit": "%"}, {"measurement": "% Activity", "setting": "[31]", "value": 98, "unit": "%"}, {"measurement": "% Activity", "setting": "[32]", "value": 99, "unit": "%"}, {"measurement": "% Activity", "setting": "[33]", "value": 87, "unit": "%"}]}
